Entries after “also recorded” stand apart in the source; their conditions may differ.
Test system: Raw246.7 cells
Test: Dual-channel confocal fluorescence imaging of ClO^− and ATP in cells
Format: cell-based
Details: for fluorescence of the NIR channel (ClO^− level) versus control group / fluorescence of the yellow channel (ATP level) versus control group: Raw246.7 cells incubated with the substance 1 h, then fluorescent probe 1×10^−5 mol/L 30 min
Description: After Raw246.7 cells are incubated with relevant steps, fluorescence imaging is performed by an Olympus FV500-IX70 laser confocal microscope, and results of the fluorescence imaging are shown in FIG. 6. Control group (Control): the Raw246.7 cells are incubated with the fluorescent probe (1×10^−5 mol/L) for 30 minutes (min). Oligomycin A (Omy A) group: the Raw246.7 cells are incubated with Omy A (2×10^−5 mol/L) for 1 h and then incubated with the fluorescent probe (1×10^−5 mol/L) for 30 min. Omy A+ATP group: the Raw246.7 cells are incubated with Omy A (2×10^−5 mol/L) for 1 h to obtain incubated cells, the incubated cells are incubated with the ATP (1×10^−3 mol/L) for 1 h and then incubated with the fluorescent probe (1×10^−5 mol/L) for 30 min. N-acetylcysteine (NAC) group: the Raw246.7 cells are incubated with NAC (5×10^−4 mol/L) for 1 h and then incubated with the fluorescent probe (1×10^−5 mol/L) for 30 min. NAC+ClO^− group: the Raw246.7 cells are incubated with NAC (5×10^−4 mol/L) for 1 h to obtain incubated cells, the incubated cells are incubated with ClO^− (2×10^−4 mol/L) for 1 h and then incubated with the fluorescent probe (1×10^−5 mol/L) for 30 min.
After the Raw246.7 cells are incubated with relevant steps, the fluorescence imaging is performed by the Olympus FV500-IX70 laser confocal microscope, and results of the fluorescence imaging are shown in FIG. 7. Control group (Control): the Raw246.7 cells are incubated with the fluorescent probe (1×10^−5 mol/L) for 30 min, and a concentration of glucose (Glu) in a culture media is 5.5×10^−3 mol/L. Lipopolysaccharide (LPS) group: the Raw246.7 cells are incubated with LPS ([…]) for 1 h and then incubated with the fluorescent probe (1×10^−5 mol/L) for 30 min. No Glu group: the Raw246.7 cells are incubated with the fluorescent probe (1×10^−5 mol/L) for 30 min, and no Glu is added to the culture media. High Glu group: the Raw246.7 cells are incubated with the fluorescent probe (1×10^−5 mol/L) for 30 min, and the concentration of Glu in the culture media is 2.5×10^−2 mol/L. Acetaminophen (C8H9NO2, APAP) group: the Raw246.7 cells are incubated with […] for 1 h and then incubated with the fluorescent probe (1×10^−5 mol/L) for 30 min.

Row | Compound | detection of ClO^− in cells by the probe (Raw246.7 cells, probe 1×10^−5 mol/L 30 min, NIR channel, listed as fluorescent probe) | detection of ATP in cells by the probe (Raw246.7 cells, probe 1×10^−5 mol/L 30 min, yellow channel, listed as fluorescent probe) | fluorescence of the NIR channel (ClO^− level) versus control group | fluorescence of the yellow channel (ATP level) versus control group
1 | CCN(CC)c1ccc2c(c1)Oc1cc(N(CC)CC)ccc1C21c2ccccc2C(=O)N1CCN1CCN(C(=O)N2c3ccc(N(C)C)cc3Sc3cc(N(C)C)ccc32)CC1 | can detect exogenous ClO^− in cells; also recorded: can detect endogenous ClO^− | can detect exogenous ATP in cells; also recorded: can detect endogenous ATP | – | –
2 | CC(=O)Nc1ccc(O)cc1 [APAP, Acetaminophen] | – | – | significantly enhanced | almost non-fluorescent
3 | CC(=O)N[C@@H](CS)C(=O)O [NAC, N-acetylcysteine] | – | – | significantly weakened | significantly enhanced
4 | CC[C@@H]1/C=C/C=C/C[C@H](C)[C@H](O)[C@](C)(O)C(=O)[C@H](C)[C@@H](O)[C@H](C)C(=O)[C@H](C)[C@@H](O)[C@H](C)/C=C/C(=O)O[C@H]2[C@@H](C)[C@@H](CC1)O[C@@]1(CC[C@@H](C)[C@@H](C[C@H](C)O)O1)[C@@H]2C [Omy A, Oligomycin A] | – | – | significantly enhanced | significantly weakened
5 | Lipopolysaccharide [LPS] | – | – | significantly enhanced | significantly weakened
